Where two headings read alike, the source gives them in different places. Positions of bridges follow the written chain, without caps; N, C: chain ends. Residues, ends and D or L forms follow the SMILES beside them. *: point of attachment. X6 = C[C@@H]1C[C@H]2[C@@H]3CCC4=CC(=O)C=C[C@]4(C)[C@@]3(F)[C@@H](O)C[C@]2(C)[C@@]1(O)C(=O)COC(=O)CC1(CC(=O)*)CCCC1; X5 = C[C@@H]1C[C@H]2[C@@H]3CCC4=CC(=O)C=C[C@]4(C)[C@@]3(F)[C@@H](O)C[C@]2(C)[C@@]1(O)C(=O)COC(=O)CCCCC(=O)*

Consider three molecules from patent US20210252159A1, “CONJUGATES OF CARTILAGE-HOMING PEPTIDES” (priority 2018, published 2021).

Data set [1] deals with CIA rats. The data set is classed as in vivo. The method, then: Ankle diameter measurements were recorded daily starting on induction day 9 and continuing for the duration of the study. […] Each treatment was administered on the day of enrollment (study day 0) and repeated daily for 7 days (study day 6). Rats were euthanized 3 h after the final dose and blood and organs were collected for testing.

A short description of data set [2]: IL-1β challenge rat model, dose-ranging study: CBC, organ weights, tolerability. To be noted: 7 hours post administration. The class given is in vivo, rats. As to the method: IL-6 was measured in knee lavage fluid using a Luminex assay and levels were normalized to total protein in the lavage fluid (FIG. 24). Assessment of the PD inflammatory marker IL-6 in the knee joints of rats challenged with IL-1β was performed. Terminal synovial fluid was collected from all animals and analyzed by Luminex 200 for IL-6 cytokine concentrations using EMD Milliplex MAP Rat Cytokine/Chemokine Magnetic Panel ([…]-65K). […] Doses are listed as nmol/kg The masses of these doses are given below in TABLE 16. Two hours and forty-five minutes (i.e., 2.75 hrs) after administration of the test agents, animals were gently heated and blood was drawn from the tail vein for CBC analysis. Animals were then anesthetized with inhaled isoflurane and injected with 30 ng of IL-1β into the right knee (except for no IL-1β group). Four hours after administration of IL-1β (seven hours after administration of test agent) the animals were euthanized. Blood was drawn for a second CBC analysis and the right knee was lavaged for detection of IL-6 in the lavage fluid using a Luminex assay. Thymus and spleen were harvested and their organ weights determined.
In the same animals for which IL-6 secretion was measured, CBC data (e.g., lymphocyte counts) were also analyzed (FIG. 25) at an early time-point, 2.75 hrs post administration of the test article (FIG. 25A), and at euthanasia 7 hrs post administration (FIG. 25B). All treatments were administered as described above for the measurement of IL-6 secretion.
All treatments and test articles were administered as described above, except for an additional treatment group that received 510 nmol/kg of the peptide-drug conjugate peptide(SEQ ID NO: 105)-DMA-dCIC.

A short description of data set [3]: Hydrolysis assay of peptide-drug conjugates in rat plasma (free drug by LC/MS). Particulars: 37° C. The class given is in vitro ADME. The method, then: Peptide-drug conjugate peptide(SEQ ID NO: 105)-DMA-dCIC was incubated in rat plasma at 37° C. Samples were removed at regular intervals, processed by solvent extraction, and analyzed by LC/MS to quantitate free dCIC. 11 time-points were measured between 5 min and 56 hours with 3 replicates per time point. The assay was repeated two times.
In order to determine hydrolysis rates, conjugates can be diluted in PBS, rat plasma, or human plasma and incubated at 37 degrees. Samples can be taken at designated time-points (e.g., 1, 2, 3, 5, 10, 15, 20, 25, 30, 45, 60, or 90 minutes and/or hours after administration). Internal standards such as triamcinolone acetonide (TAA) can be added as an internal standard, and then active agent/TAA can be extracted using acetonitrile, for example. The samples can be dried down, reconstituted, and analyzed by LC/MS. Data can be normalized using Dex AUC/TAA AUC. Percent hydrolysis can be calculated using the average ratio for active agent AUC/TAA AUC at a time point of maximal drug release. A general method can include using a lyophilized, purified peptide-drug conjugates reconstituted in DMSO following production to generate stock solution at 20 mg/mL. Each conjugate stock can be brought to 0.25 mg/mL in each hydrolysis condition (1×DPBS, human plasma and rat plasma) in triplicate and rocked at 37° C. To quantitate free active agent, 100 μl of the hydrolyzed conjugate solution can be transferred into 1 mL acetonitrile at 4° C. at which time all plasma proteins and intact conjugates can precipitate. This can be performed repeatedly to generate a series of time points (0 hr, 0.5 hr, 1 hr, 2 hr, 4 hr, 6 hr, 8 hr, 24 hr, 32 hr). The acetonitrile solution can be spun at 17,000 g for 5 minutes, and the supernatant removed and added to a 96 well block. The pellet can then be resuspended in 500 μl acetonitrile and re-pelleted as before. The supernatant can be removed and added to the same well in the block. Samples can be prepared for analysis by drying under a nitrogen stream followed by reconstitution in 110 μl 45:55 ACN:Citrate 10 mM pH 5.5. To ensure optimal recovery the block can be shaken via plate shaker at 7,000 rpm for 5 minutes during the reconstitution step. Prior to LC/MS the samples can be transferred to a 96 well plate and centrifuged at 6,500 g for 15 minutes. Analysis can be performed on an Agilent 1260 Infinity series HPLC with inline 6120 single quad MS using acetonitrile, water (+0.1% TFA) gradient (shown below) on an InfinityLab Poroshell SB-C18 column. Quantification of free active agent (or drug) can be achieved through integration of active agent peaks of the TIC.
Lyophilized, purified peptide-drug conjugates were reconstituted in DMSO following production to generate stock solution at 20 mg/mL. Each conjugate stock was brought to 0.25 mg/mL in each hydrolysis condition (1×DPBS, human plasma and rat plasma) in triplicate and rocked at 37° C.
To quantitate free dexamethasone (Dex), 100 μl of the hydrolyzed conjugate solution was transferred into 1 mL acetonitrile at 4° C. at which time all plasma proteins and intact conjugates precipitated. This was performed repeatedly to generate a series of time points (0 hr, 0.5 hr, 1 hr, 2 hr, 4 hr, 6 hr, 8 hr, 24 hr, 32 hr). The corticosteroid triamcinolone acetonide (25 μl, 0.1 mg/mL in 45:55 ACN:Citrate 10 mM pH 5.5) was supplemented into the acetonitrile solution as an internal standard. The acetonitrile solution was spun at 17,000 g for 5 minutes, and the supernatant removed and added to a 96 well block. The pellet was resuspended in 500 μl acetonitrile and re-pelleted as before. The supernatant was removed and added to the same well in the block.
Samples were prepared for analysis by drying under a nitrogen stream followed by reconstitution in 110 μl 45:55 ACN:Citrate 10 mM pH 5.5. To ensure optimal recovery the block was shaken via plate shaker at 7,000 rpm for 5 minutes during the reconstitution step. […]

Setting [4] is: 0.05 mg/kg daily for 7 days, study day 6.
Setting [5] is: in rat plasma, free Dex, read-out: Hydrolysis half-life (converted).

For `C[C@@H]1C[C@H]2[C@@H]3CCC4=CC(=O)C=C[C@]4(C)[C@@]3(F)[C@@H](O)C[C@]2(C)[C@@]1(O)C(=O)COP(=O)(O)O` [DexSP, Dexamethasone sodium phosphate, reference compound], the “ankle diameter on study day 6 versus day 0, compared to vehicle” value in data set [1] (0.05 mg/kg) is on record as “statistically different than vehicle”. Further, in data set [1] (setting [4]), the “plasma lymphocyte counts as compared to vehicle” value is “significantly reduced”, the “spleen weight as compared to vehicle” value is listed as “significantly reduced” and the “thymus weight as compared to vehicle” value is listed as “significantly reduced”. Further, in data set [1] (highest dose of 0.05 mg/kg daily for 7 days), the ankle inflammation entry is given as “effective at reducing ankle inflammation”. Also, in data set [1] (lower doses (0.001, 0.005, 0.01 mg/kg) daily for 7 days), the ankle inflammation result is recorded as “indistinguishable from vehicle”. Moreover, in data set [2], the “spleen and thymus weights at euthanasia” value is listed as “reduction in the weight of both organs”.
In the case of `CC[C@H](C)[C@@H]1NC(=O)[C@@H]2CSSC[C@H](NC(=O)[C@H](CCCNC(=N)N)NC(=O)[C@@H](NC(=O)[C@H](CC(N)=O)NC(=O)[C@@H](NC(=O)[C@@H]3CCCN3C(=O)[C@@H](NC(=O)CNC(=O)[C@H](CO)NC(=O)CNC(=O)CCCCC(=O)OCC(=O)[C@@]3(O)[C@H](C)C[C@H]4[C@@H]5CCC6=CC(=O)C=C[C@]6(C)[C@@]5(F)[C@@H](O)C[C@@]43C)C(C)C)[C@@H](C)CC)C(C)C)C(=O)N[C@@H](CCCNC(=N)N)C(=O)NCC(=O)N[C@@H](CO)C(=O)N[C@@H](CCCNC(=N)N)C(=O)N[C@@H](CC(=O)O)C(=O)N[C@H]3CSSC[C@H](NC(=O)[C@H](CCCNC(=N)N)NC(=O)[C@H](CO)NC(=O)[C@H](CC(N)=O)NC1=O)C(=O)N[C@@H](Cc1c[nH]cn1)C(=O)N[C@H](C(=O)N[C@H](C(=O)N1CCC[C@H]1C(=O)O)[C@@H](C)O)CSSC[C@H](NC(=O)[C@@H]1CCCN1C(=O)[C@H](CC(=O)O)NC(=O)[C@H](CC(C)C)NC3=O)C(=O)N[C@@H](CCCNC(=N)N)C(=O)N[C@@H](CCCNC(=N)N)C(=O)N[C@@H](C)C(=O)NCC(=O)N[C@@H](CCSC)C(=O)N[C@@H](CCCNC(=N)N)C(=O)N[C@@H](Cc1ccccc1)C(=O)NCC(=O)N[C@@H](CCCNC(=N)N)C(=O)N2` [Compound 24, Peptide(SEQ ID NO: 105)-adipic acid-Dex] (X5-GSGVPINVRCRGSRDCLDPCRRAGMRFGRCINSRCHCTP-OH; disulfide 10-30, 16-35, 20-37 (inferred); C-terminus assumed), the half-life (commonly how long it takes for the measured level to halve) at 0.25 mg/mL in data set [3] (Rat Plasma, release of free Dex, time points to 32 hr, read-out: Half-life (hours) as measured in the hydrolysis experiments (converted)) was 2.8 h; in data set [3] (setting [5]), 2.6 h.
Take `CC[C@H](C)[C@@H]1NC(=O)[C@@H]2CSSC[C@H](NC(=O)[C@H](CCCNC(=N)N)NC(=O)[C@@H](NC(=O)[C@H](CC(N)=O)NC(=O)[C@@H](NC(=O)[C@@H]3CCCN3C(=O)[C@@H](NC(=O)CNC(=O)[C@H](CO)NC(=O)CNC(=O)CC3(CC(=O)OCC(=O)[C@@]4(O)[C@H](C)C[C@H]5[C@@H]6CCC7=CC(=O)C=C[C@]7(C)[C@@]6(F)[C@@H](O)C[C@@]54C)CCCC3)C(C)C)[C@@H](C)CC)C(C)C)C(=O)N[C@@H](CCCNC(=N)N)C(=O)NCC(=O)N[C@@H](CO)C(=O)N[C@@H](CCCNC(=N)N)C(=O)N[C@@H](CC(=O)O)C(=O)N[C@H]3CSSC[C@H](NC(=O)[C@H](CCCNC(=N)N)NC(=O)[C@H](CO)NC(=O)[C@H](CC(N)=O)NC1=O)C(=O)N[C@@H](Cc1c[nH]cn1)C(=O)N[C@H](C(=O)N[C@H](C(=O)N1CCC[C@H]1C(=O)O)[C@@H](C)O)CSSC[C@H](NC(=O)[C@@H]1CCCN1C(=O)[C@H](CC(=O)O)NC(=O)[C@H](CC(C)C)NC3=O)C(=O)N[C@@H](CCCNC(=N)N)C(=O)N[C@@H](CCCNC(=N)N)C(=O)N[C@@H](C)C(=O)NCC(=O)N[C@@H](CCSC)C(=O)N[C@@H](CCCNC(=N)N)C(=O)N[C@@H](Cc1ccccc1)C(=O)NCC(=O)N[C@@H](CCCNC(=N)N)C(=O)N2` [Compound 26, Peptide(SEQ ID NO: 105)-3,3,-tetramethylene-glutaric acid-Dex] (X6-GSGVPINVRCRGSRDCLDPCRRAGMRFGRCINSRCHCTP-OH; disulfide 10-30, 16-35, 20-37 (inferred); C-terminus assumed): the half-life at 0.25 mg/mL in data set [3] (setting [5]) was 1.1 h.
